# Source: US20230339886A1 (University of Florida Research Foundation, Incorporated, priority 2020, published 2023)
# Biological target: T1, REV-ERBα LBD (human; residues 281-614 Δ324-422) (Homo sapiens, UniProt P20393, DEL324-422)
# T1 construct: 6×Histag-REV-ERBα LBD (human; residues 281-614 Δ324-422); made in house; host or cells: Escherichia coli
# Assay: TR-FRET corepressor interaction assay (REV-ERBα LBD, FITC-SMRT peptide)
# Type: biochemical
# Details: Table 2, read-out: REVERBα agonism (EC50 class, FRET assay)
# Procedure: TR-FRET corepressor interaction assay. The time-resolved fluorescence resonance energy transfer (TR-FRET) assay was performed in black low-volume 384-well plates (Greiner). […] Ligand stocks were prepared via serial dilution in DMSO, added to wells in triplicate, and plates were incubated at 4° C. for 2 h and read using a BioTek Synergy Neo multimode plate reader. The Tb donor was excited at 340 nm; its fluorescence emission was monitored at 495 nm, and the acceptor FITC emission was measured at 520 nm; and the TR-FRET ratio was calculated as the signal at 520 nm divided by the signal at 495 nm. Data were plotted using GraphPad Prism as TR-FRET ratio vs. ligand concentration and fit to sigmoidal dose response curve equation.
# T1 sequence (P20393 with tags, fused parts or gaps DEL324-422): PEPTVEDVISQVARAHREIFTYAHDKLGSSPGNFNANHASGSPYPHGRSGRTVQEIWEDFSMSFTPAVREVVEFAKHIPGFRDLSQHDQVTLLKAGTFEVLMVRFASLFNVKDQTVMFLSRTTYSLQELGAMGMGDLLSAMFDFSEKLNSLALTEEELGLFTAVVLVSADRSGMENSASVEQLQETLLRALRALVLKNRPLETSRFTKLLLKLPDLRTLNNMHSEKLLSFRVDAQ
# T1 sequence (Q9Y618 2335-2356 partner limits assumed): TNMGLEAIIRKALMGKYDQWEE
row,EC50 [nM],Structure (SMILES)
1,> 3000,CC(C)Cn1cc(C(C)CNS(=O)(=O)C2CC2)c2ccc(-c3ccccc3)cc21 (centres unmarked) [Compound 256]
2,500 to 3000,CC(C)Cn1cc([C@H]2C[C@H]2NS(=O)(=O)C(C)C)c2ccc(Br)cc21 [Compound 257]
3,< 500,CC(C)Cn1cc([C@H]2C[C@H]2NS(=O)(=O)C(C)C)c2ccc(-c3ccncc3)cc21 [Compound 258]
4,> 3000,CC(C)Cn1cc([C@H]2C[C@H]2NS(=O)(=O)C(C)C)c2ccc(-c3ccccc3)cc21 [Compound 259]
5,< 500,CC(C)Cn1cc(CCNS(=O)(=O)C(C)C)c2cc(F)c(-c3ccccc3)cc21 [Compound 261]
6,< 500,CC(C)Cn1cc(CNS(=O)(=O)C(C)C)c2cc(F)c(-c3ccccc3)cc21 [Compound 266]
7,< 500,CC(C)Cn1cc(CNS(=O)(=O)C(C)C)c2cc(F)c(-c3ccccc3Cl)cc21 [Compound 267]
8,< 500,CC(C)Cn1cc(CNS(=O)(=O)C(C)C)c2cc(F)c(-c3ccncc3Cl)cc21 [Compound 268]
9,< 500,CC(C)Cn1cc(CNS(=O)(=O)C(C)C)c2cc(F)c(-c3ccccc3C(F)(F)F)cc21 [Compound 269]
10,< 500,CC(C)S(=O)(=O)NCCc1cn(CCC(C)(C)C)c2cc(-c3ccncc3)ccc12 [Compound 270]
11,500 to 3000,CC(C)S(=O)(=O)NCCc1cn(CC(C(F)(F)F)C(F)(F)F)c2cc(-c3ccncc3)ccc12 [Compound 271]
12,< 500,CC(C)S(=O)(=O)NCCc1cn(CC2CCCC2)c2cc(-c3ccncc3)ccc12 [Compound 272]
13,> 3000,CC(C)Cn1cc(CC(NS(=O)(=O)C(C)C)C(F)(F)F)c2ccc(-c3ccncc3)cc21 (centres unmarked) [Compound 273]
14,> 3000,CC(C)Cn1cc(CC(N(C)S(=O)(=O)C(C)C)C(F)(F)F)c2ccc(-c3ccncc3)cc21 (centres unmarked) [Compound 274]
15,500 to 3000,CC(C)Cn1cc(CC(C)NS(=O)(=O)C(C)C)c2ccc(-c3ccncc3)cc21 (centres unmarked) [Compound 275]
16,< 500,CC(C)Cn1cc(CC(C)N(C)S(=O)(=O)C(C)C)c2ccc(-c3ccncc3)cc21 (centres unmarked) [Compound 276]
17,< 500,CC(C)Cn1cc(CCN(C(C)C)S(=O)(=O)C(C)C)c2ccc(-c3ccncc3)cc21 [Compound 277]
18,< 500,O=S(=O)(NCc1cn(CC2CCCC2)c2cc(-c3ccccc3C(F)(F)F)c(F)cc12)C1CC1 [Compound 280]
19,< 500,O=S(=O)(NCCc1cn(CC2CCCC2)c2cc(-c3ccncc3Cl)ccc12)C1CC1 [Compound 281]
20,500 to 3000,O=S(=O)(NCc1cn(CC(C(F)(F)F)C(F)(F)F)c2cc(-c3ccncc3Cl)c(F)cc12)C1CC1 [Compound 284]
21,> 3000,CC(C)(C)C(=O)n1cc(CNS(=O)(=O)C(F)(F)F)c2cc(F)c(-c3ccncc3Cl)cc21 [Compound 285]
22,< 500,CC(C)(C)Cn1cc(CCNS(=O)(=O)C2CC2)c2cc(F)c(-c3ccccc3C(F)(F)F)cc21 [Compound 287]
23,< 500,CC(C)(C)Cn1cc(CCNS(=O)(=O)C2CC2)c2cc(F)c(-c3ccncc3Cl)cc21 [Compound 288]
24,< 500,CC(C)S(=O)(=O)NCCc1cn(CC(C)(C)C)c2cc(-c3ccccc3C(F)(F)F)c(F)cc12 [Compound 289]
25,< 500,CC(C)S(=O)(=O)NCCc1cn(CC(C)(C)C)c2cc(-c3ccncc3Cl)c(F)cc12 [Compound 290]

row,EC50 [nM],Structure (SMILES)
1,> 3000,CC(C)Cn1cc(C(C)N[S+]([O-])C(C)(C)C)c2ccc(-c3ccccc3C(F)(F)F)cc21 (centres unmarked) [Compound 291]
2,> 3000,"Cc1c(CCNS(=O)(=O)N(C)C)c2ccc(-c3ccncc3)cc2n1CC(C)C [Example 41, dimethyl({2-[2-methyl-1-(2-methylpropyl)-6-(pyridin-4-yl)-1H-indol-3-yl]ethyl}sulfamoyl)amine]"
3,500 to 3000,"CC(C)Cn1cc(CCNS(=O)(=O)N(C)C)c2ccc(-c3ccc(F)cc3)cc21 [Example 45, N-{2-[6-(4-fluorophenyl)-1-(2-methylpropyl)-1H-indol-3-yl]ethyl}-N,N-dimethylsulfuric diamide]"
4,< 500,"Cc1ccccc1-c1ccc2c(CCNS(=O)(=O)N(C)C)cn(CC(C)C)c2c1 [Example 46, N-{2-[6-(2-methylphenyl)-1-(2-methylpropyl)-1H-indol-3-yl]ethyl}-N,N-dimethylsulfuric diamide]"
5,500 to 3000,"Cc1ccc(-c2ccc3c(CCNS(=O)(=O)N(C)C)cn(CC(C)C)c3c2)cc1 [Example 48, N-{2-[6-(4-methylphenyl)-1-(2-methylpropyl)-1H-indol-3-yl]ethyl}-N,N-dimethylsulfuric diamide]"
6,< 500,"CC(C)Cn1cc(CCNS(=O)(=O)N(C)C)c2ccc(-c3cccc([N+](=O)[O-])c3)cc21 [Example 49, N-{2-[6-(3-nitrophenyl)-1-(2-methylpropyl)-1H-indol-3-yl]ethyl}-N,N-dimethylsulfuric diamide]"
7,500 to 3000,"CC(C)Cn1cc(CCNS(=O)(=O)N(C)C)c2ccc(-c3cc(F)cc(F)c3)cc21 [Example 54, N-{2-[6-(3,5-difluorophenyl)-1-(2-methylpropyl)-1H-indol-3-yl]ethyl}-N,N-dimethyl-sulfuric diamide]"
8,500 to 3000,"CC(C)Cn1cc(CCNS(=O)(=O)N(C)C)c2ccc(-c3cccc(-c4ccccc4)c3)cc21 [Example 55, N-{2-[6-([1,1′-biphenyl]-3-yl)-1-(2-methylpropyl)-1H-indol-3-yl]ethyl}-N,N-dimethyl-sulfuric diamide]"
9,500 to 3000,"CC(C)Cn1cc(CCNS(=O)(=O)N(C)C)c2ccc(-c3ccccc3F)cc21 [Example 56, N-{2-[6-(2-fluorophenyl)-1-(2-methylpropyl)-1H-indol-3-yl]ethyl}-N,N-dimethylsulfuric diamide]"
10,< 500,"CC(C)Cn1cc(CCNS(=O)(=O)N(C)C)c2ccc(-c3cccc(C#N)c3)cc21 [Example 59, N-{2-[6-(3-cyanophenyl)-1-(2-methylpropyl)-1H-indol-3-yl]ethyl}-N,N-dimethylsulfuric diamide]"
11,500 to 3000,"CC(C)Cn1cc(CCNS(=O)(=O)N(C)C)c2ccc(-c3cccc(S(C)(=O)=O)c3)cc21 [Example 60, N-{2-[6-(3-methylsulfonylphenyl)-1-(2-methylpropyl)-1H-indol-3-yl]ethyl}-N,N-dimethylsulfuric diamide]"
12,500 to 3000,"CC(C)Cn1cc(C2CCCN(S(=O)(=O)N(C)C)C2)c2ccc(-c3ccccc3)cc21 (centres unmarked) [Example 61, 3-(1-isobutyl-6-phenyl-1H-indol-3-yl)-N,N-dimethylpiperidine-1-sulfonamide]"
13,> 3000,"CC(C)Cn1cc(-c2cnn(S(=O)(=O)C(C)C)c2)c2ccc(-c3ccccc3)cc21 [Example 63, 1-isobutyl-3-(1-(isopropylsulfonyl)-1H-pyrazol-4-yl)-6-phenyl-1H-indole]"
14,500 to 3000,"CNS(=O)(=O)c1ccccc1-c1ccc2c(CCNS(=O)(=O)N(C)C)cn(CC(C)C)c2c1 [Example 72, N′-{2-[6-(2-N′-methylsulfonamidophenyl)-1-(2-methylpropyl)-1H-indol-3-yl]ethyl}-N,N-dimethylsulfuric diamide]"
15,> 3000,"COC(=O)c1ccccc1-c1ccc2c(CCNS(=O)(=O)N(C)C)cn(CC(C)C)c2c1 [Example 73, N′-{2-[6-(2-methyl carbonatephenyl)-1-(2-methylpropyl)-1H-indol-3-yl]ethyl}-N,N-dimethyl sulfuric diamide]"
16,> 3000,"CC(C)Cn1cc(CCNS(=O)(=O)N(C)C)c2ccc(-c3ccccc3-c3ccccc3)cc21 [Example 74, N-{2-[6-[(1,1-diphenyl)-2yl]-1-(2-methylpropyl)-1H-indol-3-yl]ethyl}-N,N-dimethylsulfuric diamide]"
17,500 to 3000,"CC(C)Cn1cc(CCNS(=O)(=O)N(C)C)c2ccc(-c3ccccc3CO)cc21 [Example 76, N-{2-[6-(2-hydroxylmethylphenyl)-1-(2-methylpropyl)-1H-indol-3-yl]ethyl}-N,N-dimethyl-sulfuric diamide]"
18,500 to 3000,"CC(C)Cn1cc(CCNS(=O)(=O)N(C)C)c2ccc(-c3ccccc3OCc3ccccc3)cc21 [Example 77, N-{2-[6-(2-benzyloxylphenyl)-1-(2-methylpropyl)-1H-indol-3-yl]ethyl}-N,N-dimethyl-sulfuric diamide]"
19,500 to 3000,CC(C)Cn1cc(CCNS(=O)(=O)N(C)C)c2ccc(-c3ccccc3C(=O)OC(C)(C)C)cc21 [Example 79]
20,< 500,"Cc1cccc(C)c1-c1ccc2c(CCNS(=O)(=O)N(C)C)cn(CC(C)C)c2c1 [Example 81, N-{2-[6-(2,6-dimethylphenyl)-1-(2-methylpropyl)-1H-indol-3-yl]ethyl}-N,N-dimethyl-sulfuric diamide]"
21,> 3000,"CC(C)Cn1cc(-c2cccc(NS(=O)(=O)C(C)C)c2)c2ccc(-c3ccccc3)cc21 [Example 83, N-(3-(1-isobutyl-6-phenyl-1H-indol-3-yl)phenyl)propane-2-sulfonamide]"
22,500 to 3000,"CC(C)Cn1cc(-c2cccc(CNS(=O)(=O)C(C)C)c2)c2ccc(-c3ccccc3)cc21 [Example 86, N-(3-(1-isobutyl-6-phenyl-1H-indol-3-yl)benzyl)propane-2-sulfonamide]"
23,500 to 3000,"CC(C)Cn1cc(-c2ccc(CNS(=O)(=O)C(C)C)cc2)c2ccc(-c3ccccc3)cc21 [Example 87, N-(4-(1-isobutyl-6-phenyl-1H-indol-3-yl)benzyl)propane-2-sulfonamide]"
24,< 500,C=C(C)c1ccc2c(CCNS(=O)(=O)N(C)C)cn(CC(C)C)c2c1 [Example 88]
25,500 to 3000,"CC(C)Cn1cc(CCNS(=O)(=O)N(C)C)c2ccc(-n3cccn3)cc21 [Example 92, N-{2-[6-(1H-pyrazol-1-yl)-1-(2-methylpropyl)-1H-indol-3-yl]ethyl}-N,N-dimethylsulfuric diamide]"
